The source made the active and inactive calls. No cut-off for these calls is given here.
Legend:
[1] = Cytotoxicity against mouse MigA9 cells harboring mouse Hoxa9 gene incubated for 72 hrs by MTS assay; type: functional, cell-based; settings: MigA9, 72 h
HOXA9 DNA binding site [2] = experiment: Binding affinity to hairpin DNA Hoxa9-binding site 5'-biotin-CCATGATTTACCTCTGTAAATCATGG (unknown origin) by surface plasmon resonance; type: nucleic-acid assay
[3] = Induction of cell death in mouse MigA9 cells harboring mouse Hoxa9 gene assessed as propidium iodide-positive cells at 15 uM incubated for 24 hrs by propidium iodide staining based flow cytometry (reference value: 9.06 +/- 0.53%); type: functional; settings: dose 15 µM; time 24 hrs
[4] = Induction of cell death in mouse MigA9 cells harboring mouse Hoxa9 gene assessed as propidium iodide-positive cells at 20 uM incubated for 24 hrs by propidium iodide staining based flow cytometry (reference value: 9.06 +/- 0.53%); type: functional; settings: dose 20 µM; time 24 hrs
[5] = Induction of cell cycle arrest in mouse MigA9 cells harboring mouse Hoxa9 gene assessed as accumulation at sub-G1 phase at 20 uM incubated for 48 hrs by propidium iodide staining based flow cytometry (reference value: 0.76 +/- 0.1%); type: functional
K562 = experiment: Anticlonogenic activity in human K562 cells assessed as K562 number at 2.5 uM incubated for 10 days by Methocult-colony forming cell assay relative to control; type: functional; settings: time 10 day
HOXA9 DNA binding site [6] = settings: dose 0.5 µM
HOXA9 DNA binding site [7] = settings: dose 1.0 µM
[8] = test system: HOXA9 DNA binding site [UNDEFINED MUTATION]
[9] = test system: HOXA9 DNA binding site [UNDEFINED MUTATION]; remark: listed apart in the source
[10] = Drug localization in nucleus of human HT-29 cells at 5 uM incubated for 16 hrs by DiOC6/propidium iodide staining based by fluorescence microscopy; type: ADME, subcellular; settings: ht-29, 16 h
[11] = biological target: Homeobox protein Hox-A9 (Mus musculus) (UniProt P09631); experiment: Inhibition of HOXA9 in mouse MigA9 cells assessed as induction of nuytten-ezh2-targets-up genes by gene set enrichment analysis; type: cell-based
[12] = biological target: Homeobox protein Hox-A9 (Mus musculus) (UniProt P09631); experiment: Inhibition of HOXA9 in mouse MigA9 cells assessed as induction of takeda- targets-of-nup98- hoxa9-fusion-8d-dn genes by gene set enrichment analysis; type: cell-based
[13] = biological target: Homeobox protein Hox-A9 (Mus musculus) (UniProt P09631); experiment: Inhibition of HOXA9 in mouse MigA9 cells assessed as induction of gal-leukemic stem cell-dn genes by gene set enrichment analysis; type: cell-based
[14] = biological target: Homeobox protein Hox-A9 (Mus musculus) (UniProt P09631); experiment: Inhibition of HOXA9 in mouse MigA9 cells assessed as induction of gabriely-mir21-targets gene by gene set enrichment analysis; type: cell-based
[15] = biological target: Homeobox protein Hox-A9 (Mus musculus) (UniProt P09631); experiment: Inhibition of HOXA9 in mouse MigA9 cells assessed as downregulation of martens-tretinoin-response-dn genes by gene set enrichment analysis; type: cell-based
[16] = biological target: Homeobox protein Hox-A9 (Mus musculus) (UniProt P09631); experiment: Inhibition of HOXA9 in mouse MigA9 cells assessed as downregulation of wang-immortalised-by-hoxa9-and meis1-up genes by gene set enrichment analysis; type: cell-based
MigA9 [17] = experiment: Induction of ITGAM gene in mouse MigA9 cells by ingenuity pathway analysis; type: functional, cell-based
MigA9 [18] = experiment: Induction of RGS10 gene in mouse MigA9 cells by ingenuity pathway analysis; type: functional, cell-based
MigA9 [19] = experiment: Induction of TP53 gene in mouse MigA9 cells by ingenuity pathway analysis; type: functional, cell-based
MigA9 [20] = experiment: Induction of CD47 gene in mouse MigA9 cells by ingenuity pathway analysis; type: functional, cell-based
MigA9 [21] = experiment: Induction of IGLL1/IGLL5 gene in mouse MigA9 cells by ingenuity pathway analysis; type: functional, cell-based
MigA9 [22] = experiment: Induction of PIM1 gene in mouse MigA9 cells by ingenuity pathway analysis; type: functional, cell-based
MigA9 [23] = experiment: Induction of TAC4 gene in mouse MigA9 cells by ingenuity pathway analysis; type: functional, cell-based
MigA9 [24] = experiment: Induction of AKAP13 gene in mouse MigA9 cells by ingenuity pathway analysis; type: functional, cell-based
MigA9 [25] = experiment: Downregulation of ARHGEF1 gene in mouse MigA9 cells by ingenuity pathway analysis; type: functional, cell-based
MigA9 [26] = experiment: Downregulation of CD74 gene in mouse MigA9 cells by ingenuity pathway analysis; type: functional, cell-based
MigA9 [27] = experiment: Upregulation of DICER1 gene in mouse MigA9 cells by ingenuity pathway analysis; type: functional, cell-based
MigA9 [28] = experiment: Upregulation of DNMT3A gene in mouse MigA9 cells by ingenuity pathway analysis; type: functional, cell-based
MigA9 [29] = experiment: Upregulation of E2F1 gene in mouse MigA9 cells by ingenuity pathway analysis; type: functional, cell-based
MigA9 [30] = experiment: Downregulation of FGF7 gene in mouse MigA9 cells by ingenuity pathway analysis; type: functional, cell-based
MigA9 [31] = experiment: Upregulation of ID1 gene in mouse MigA9 cells by ingenuity pathway analysis; type: functional, cell-based
MigA9 [32] = experiment: Downregulation of KLF2 gene in mouse MigA9 cells by ingenuity pathway analysis; type: functional, cell-based
MigA9 [33] = experiment: Upregulation of KLF3 gene in mouse MigA9 cells by ingenuity pathway analysis; type: functional, cell-based
MigA9 [34] = experiment: Upregulation of Ncoa6 gene in mouse MigA9 cells by ingenuity pathway analysis; type: functional, cell-based
MigA9 [35] = experiment: Downregulation of onecut1 gene in mouse MigA9 cells by ingenuity pathway analysis; type: functional, cell-based
MigA9 [36] = experiment: Downregulation of pim1 gene in mouse MigA9 cells by ingenuity pathway analysis; type: functional, cell-based
MigA9 [37] = experiment: Upregulation of rgs10 gene in mouse MigA9 cells by ingenuity pathway analysis; type: functional, cell-based
MigA9 [38] = experiment: Upregulation of tac4 gene in mouse MigA9 cells by ingenuity pathway analysis; type: functional, cell-based
MigA9 [39] = experiment: Upregulation of timp2 gene in mouse MigA9 cells by ingenuity pathway analysis; type: functional, cell-based
MigA9 [40] = experiment: Downregulation of CTSG gene in mouse MigA9 cells by ingenuity pathway analysis; type: functional, cell-based
MigA9 [41] = experiment: Upregulation of CEACAM1 gene in mouse MigA9 cells by ingenuity pathway analysis; type: functional, cell-based
[42] = Stability in mouse MigA9 cells assessed as visibility of intrinsic fluorescence measured after 10 days by fluorescence microscopy; type: ADME, cell-based; settings: miga9, 240 h, time 10 day
[43] = Induction of cell death in mouse MigA9 cells harboring mouse Hoxa9 gene assessed as propidium iodide-positive cells at 0.5 uM incubated for 24 hrs by propidium iodide staining based flow cytometry (reference value: 9.06 +/- 0.53%); type: functional
[44] = Induction of cell death in mouse MigA9 cells harboring mouse Hoxa9 gene assessed as propidium iodide-positive cells at 1 uM incubated for 24 hrs by propidium iodide staining based flow cytometry relative to control; type: functional
[45] = Induction of cell death in mouse MigA9 cells harboring mouse Hoxa9 gene assessed as propidium iodide-positive cells at 0.5 uM incubated for 48 hrs by propidium iodide staining based flow cytometry (reference value: 8.75 +/- 0.2%); type: functional
[46] = Induction of cell death in mouse MigA9 cells harboring mouse Hoxa9 gene assessed as propidium iodide-positive cells at 1 uM incubated for 48 hrs by propidium iodide staining based flow cytometry (reference value: 8.75 +/- 0.2%); type: functional
[47] = Induction of cell cycle arrest in mouse MigA9 cells harboring mouse Hoxa9 gene assessed as accumulation at sub-G1 phase at 0.5 uM incubated for 48 hrs by propidium iodide staining based flow cytometry (reference value: 0.76 +/- 0.1%); type: functional
[48] = Induction of cell cycle arrest in mouse MigA9 cells harboring mouse Hoxa9 gene assessed as accumulation at sub-G1 phase at 1 uM incubated for 48 hrs by propidium iodide staining based flow cytometry (reference value: 0.76 +/- 0.1%); type: functional
[49] = Drug localization in nucleus of mouse MigA9 cells at 20 uM incubated for 2 hrs by TO-PRO-3/propidium iodide staining based by fluorescence microscopy; type: ADME, subcellular; settings: miga9, 2 h
[50] = Induction of cell cycle arrest in mouse MigA9 cells expressing mouse Hoxa9 assessed as accumulation at G0/G1 phase at 0.5 uM incubated for 48 hrs by EdU/propidium iodide staining based flow cytometry (reference value: 48.77 +/- 0.19%); type: functional
[51] = Induction of cell cycle arrest in mouse MigA9 cells expressing mouse Hoxa9 assessed as accumulation at G0/G1 phase at 1 uM incubated for 48 hrs by EdU/propidium iodide staining based flow cytometry (reference value: 48.77 +/- 0.19%); type: functional
[52] = Induction of cell cycle arrest in mouse MigA9 cells expressing mouse Hoxa9 assessed as accumulation at S phase at 0.5 uM incubated for 48 hrs by EdU/propidium iodide staining based flow cytometry (reference value: 46.68 +/- 0.21%); type: functional
[53] = Induction of cell cycle arrest in mouse MigA9 cells expressing mouse Hoxa9 assessed as accumulation at S phase at 1 uM incubated for 48 hrs by EdU/propidium iodide staining based flow cytometry (reference value: 46.68 +/- 0.21%); type: functional
[54] = Induction of cell cycle arrest in mouse MigA9 cells expressing mouse Hoxa9 assessed as accumulation at G2/M phase at 0.5 uM incubated for 48 hrs by EdU/propidium iodide staining based flow cytometry (reference value: 4.55 +/- 0.16%); type: functional
[55] = Induction of cell cycle arrest in mouse MigA9 cells expressing mouse Hoxa9 assessed as accumulation at G2/M phase at 1 uM incubated for 48 hrs by EdU/propidium iodide staining based flow cytometry (reference value: 4.55 +/- 0.16%); type: functional
HOXA9 DNA binding site [56] = experiment: Inhibition of HOXA9 (unknown origin) expressed in reticulocyte lysate system binding to 32P-radiolabeled DNA Hoxa9-binding site (strand a-CTGCGATGATTTACGACCGC /strand b-GCGGTCGTAAATCATCGCAG) (unknown origin) assessed as HOXA9/DNA inhibition at 2.5 to 20 uM incubated for 20 mins by electrophoretic mobility shift assay relative to control; type: subcellular; settings: dose 2.5-20 µM
[57] = test system: HOXA9 DNA binding site [UNDEFINED MUTATION]; experiment: Binding affinity to DNA Hoxa9-binding site-5'-ATTTA mutant (strand a-CTGCGATGAGTCACGACCGC/strand b-GCGGTCGTGACTCATCGCAG) (unknown origin) by UV/visible spectrophotometric method; type: nucleic-acid assay
[58] = test system: HOXA9 DNA binding site [UNDEFINED MUTATION]; experiment: Binding affinity to DNA Hoxa9-binding site-5'-ATTTA/5'ATGA double mutant (strand a-CTGCGTAGCGTCACGACCGC/strand b-GCGGTCGTGACGCTACGCAG) (unknown origin) by UV/visible spectrophotometric method; type: nucleic-acid assay
[59] = Induction of spectral signal at wavelength at 1 to 10 uM by circular dichroism method; type: physicochemical; settings: dose 1-10 µM

Chain of Homeobox protein Hox-A9 (Mus musculus) (P09631 whole entry, the tested form may be a part): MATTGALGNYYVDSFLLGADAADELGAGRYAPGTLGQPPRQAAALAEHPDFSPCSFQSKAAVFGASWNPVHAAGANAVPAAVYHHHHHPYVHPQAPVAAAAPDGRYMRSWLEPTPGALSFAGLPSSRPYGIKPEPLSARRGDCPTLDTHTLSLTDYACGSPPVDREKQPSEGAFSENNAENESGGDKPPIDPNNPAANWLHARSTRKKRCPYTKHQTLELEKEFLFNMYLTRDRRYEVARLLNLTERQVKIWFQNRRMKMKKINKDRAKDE

N=C(N)c1cccc(-c2ccc(-c3nc4cc(C(=N)N)ccc4[nH]3)cc2)c1
IC50 [1]: 14.1 µM | Kd (HOXA9 DNA binding site [2]): 0.0055 µM | Activity [3]: 3.87% | Activity [4]: 5.17% | Activity [5]: 1.65% | Activity (K562): 100% | ΔTm (HOXA9 DNA binding site [6]): 7 °C | ΔTm (HOXA9 DNA binding site [7]): > 10 °C | ΔTm [8]: 4 °C | ΔTm [9]: 4 °C

N=C(N)c1ccc(-c2ccc(-c3nc4ccc(C(=N)N)cc4[nH]3)s2)cc1
Drug transport [10]: Active | Activity [3]: 13.5% | Activity [4]: 21.07% | Activity [5]: 12% | inhibition [11]: Active | inhibition [12]: Active | inhibition [13]: Active | inhibition [14]: Active | inhibition [15]: Active | inhibition [16]: Active | Activity (MigA9 [17]): Active | Activity (MigA9 [18]): Active | Activity (MigA9 [19]): Active | Activity (MigA9 [20]): Active | Activity (MigA9 [21]): Active | Activity (MigA9 [22]): Active | Activity (MigA9 [23]): Active | Activity (MigA9 [24]): Active | Activity (MigA9 [25]): Active | Activity (MigA9 [26]): Active | Activity (MigA9 [27]): Active | Activity (MigA9 [28]): Active | Activity (MigA9 [29]): Active | Activity (MigA9 [30]): Active | Activity (MigA9 [31]): Active | Activity (MigA9 [32]): Active | Activity (MigA9 [33]): Active | Activity (MigA9 [34]): Active | Activity (MigA9 [35]): Active | Activity (MigA9 [36]): Active | Activity (MigA9 [37]): Active | Activity (MigA9 [38]): Active | Activity (MigA9 [39]): Active | Activity (MigA9 [40]): Active | Activity (MigA9 [41]): Active | Activity (K562): 100% | Stabilty [42]: Stable | ΔTm (HOXA9 DNA binding site [6]): 7 °C | ΔTm (HOXA9 DNA binding site [7]): > 10 °C | ΔTm [8]: 4 °C | ΔTm [9]: 4 °C

N=C(Nc1ccc(-c2ccc(-c3ccc(NC(=N)c4ccccn4)cc3)[nH]2)cc1)c1ccccn1
Activity [43]: 5.19% | Activity [44]: 14.43% | Activity [45]: 8.01% | Activity [46]: 17.6% | Activity [47]: 1.23% | Activity [48]: 1.04% | Drug transport [49]: Active | Activity [50]: 48.44% | Activity [51]: 50.15% | Activity [52]: 46.06% | Activity [53]: 43.51% | Activity [54]: 5.5% | Activity [55]: 6.34%

N=C(N)c1ccc(-c2ccc(-c3nc4cc(C(=N)N)ccc4o3)o2)cc1
IC50 [1]: > 50 µM | Drug transport [10]: Active | inhibition (HOXA9 DNA binding site [56]): inactive | Activity [57]: inactive | Activity [58]: inactive | Activity [3]: 8.89% | Activity [4]: 8.38% | Activity [5]: 0.92% | Activity (K562): 100% | Stabilty [42]: Stable | Activity [59]: Not Active

— ChEMBL document CHEMBL4813909, “Heterocyclic Diamidine DNA Ligands as HOXA9 Transcription Factor Inhibitors: Design, Molecular Evaluation, and Cellular Consequences in a HOXA9-Dependant Leukemia Cell Model” (J Med Chem, 2019)
